From patent publication US12227501B2, “3-amino-2-[2-(acylamino)pyridin-4-yl]-1,5,6,7-tetrahydro-4h-pyrrolo[3,2-c]pyridin-4-one as CSNK1 inhibitors” (Bayer Aktiengesellschaft, priority 2019, dated 2025)
Read-outs that look alike come from different tables or passages of the source.

Key:
Format in all cases: biochemical
human CSNK1A1 [1] = molecular target: T1, human CSNK1A1 (Homo sapiens (Human), UniProt P48729); assay: CSNK1A1 Assay 2 (ADP-Glo, 1 μM ATP); details: substrate biotin-Ahx-KRRRAL-pS-VASLPGL, read-out: CSNK1A1 Assay 2 IC50 [mol/l] (median)
T1 sequence (P48729 whole entry, the tested form may be a part): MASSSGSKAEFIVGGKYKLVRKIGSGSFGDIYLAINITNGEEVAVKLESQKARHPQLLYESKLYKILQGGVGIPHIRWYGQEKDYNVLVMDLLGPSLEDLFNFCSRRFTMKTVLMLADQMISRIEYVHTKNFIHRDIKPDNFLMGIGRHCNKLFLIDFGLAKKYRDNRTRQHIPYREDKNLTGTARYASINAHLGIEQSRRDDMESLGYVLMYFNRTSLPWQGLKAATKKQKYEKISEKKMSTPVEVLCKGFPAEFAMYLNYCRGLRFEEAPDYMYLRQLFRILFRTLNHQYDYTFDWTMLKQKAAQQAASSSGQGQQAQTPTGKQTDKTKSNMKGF
Method in brief: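 Full-length human CSNK1A1 as an N-terminal GST fusion (baculovirus/insect cells) with biotinylated peptide substrate biotin-Ahx-KRRRAL-pS-VASLPGL and 1 μM ATP, in HEPES pH 7.5 buffer. Compounds were pre-incubated with enzyme (~0.0375 ng/μL) for 15 min at 22 °C. Generated ADP was read by ADP-Glo luminescence as the activity measure.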

human CSNK1A1 [2] = molecular target: T1, human CSNK1A1; assay: CSNK1A1 High ATP Assay (ADP-Glo, 1 mM ATP); details: read-out: CSNK1A1 high ATP assay IC50 [mol/l] (median)
Method in brief: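 GST-tagged full-length human CSNK1A1 from baculovirus-infected insect cells (typically about 0.4 ng/μL), pre-incubated with compound 15 min at 22 °C. Reaction with biotinylated peptide biotin-Ahx-KRRRAL-pS-VASLPGL at 1 mM ATP. ADP formed read by ADP-Glo luminescence.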

human CSNK1D = human CSNK1D (Homo sapiens (Human), UniProt P48730); assay: CSNK1D Assay (ADP-Glo, 1 μM ATP); details: read-out: CSNK1D IC50 [mol/l] (median)
human CSNK1D, sequence (P48730 whole entry): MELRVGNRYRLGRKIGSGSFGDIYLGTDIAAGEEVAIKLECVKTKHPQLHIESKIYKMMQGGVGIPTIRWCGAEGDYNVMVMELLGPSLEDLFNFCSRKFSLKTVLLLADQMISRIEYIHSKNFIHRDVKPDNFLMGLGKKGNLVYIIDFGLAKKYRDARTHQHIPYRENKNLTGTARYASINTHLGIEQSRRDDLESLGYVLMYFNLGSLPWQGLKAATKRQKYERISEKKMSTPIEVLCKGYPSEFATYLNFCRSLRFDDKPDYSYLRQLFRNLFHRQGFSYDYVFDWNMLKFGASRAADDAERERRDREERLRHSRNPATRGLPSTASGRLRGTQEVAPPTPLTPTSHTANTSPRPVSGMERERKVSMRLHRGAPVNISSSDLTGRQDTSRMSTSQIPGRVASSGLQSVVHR
Method in brief: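 GST-tagged full-length human CSNK1D from baculovirus-infected insect cells, typically ~0.5 ng/μL, with biotinylated peptide substrate and 1 μM ATP in HEPES pH 7.5 buffer. Compound is preincubated with enzyme 15 min at 22 °C. ADP formed is quantified by ADP-Glo luminescence.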

[3] = molecular target: wild-type Epidermal Growth Factor Receptor (EGFR) (Homo sapiens (Human), UniProt P00533); assay: WT-EGFR Kinase Assay (TR-FRET, 2 mM ATP)
wild-type Epidermal Growth Factor Receptor (EGFR), sequence (P00533 669-1210): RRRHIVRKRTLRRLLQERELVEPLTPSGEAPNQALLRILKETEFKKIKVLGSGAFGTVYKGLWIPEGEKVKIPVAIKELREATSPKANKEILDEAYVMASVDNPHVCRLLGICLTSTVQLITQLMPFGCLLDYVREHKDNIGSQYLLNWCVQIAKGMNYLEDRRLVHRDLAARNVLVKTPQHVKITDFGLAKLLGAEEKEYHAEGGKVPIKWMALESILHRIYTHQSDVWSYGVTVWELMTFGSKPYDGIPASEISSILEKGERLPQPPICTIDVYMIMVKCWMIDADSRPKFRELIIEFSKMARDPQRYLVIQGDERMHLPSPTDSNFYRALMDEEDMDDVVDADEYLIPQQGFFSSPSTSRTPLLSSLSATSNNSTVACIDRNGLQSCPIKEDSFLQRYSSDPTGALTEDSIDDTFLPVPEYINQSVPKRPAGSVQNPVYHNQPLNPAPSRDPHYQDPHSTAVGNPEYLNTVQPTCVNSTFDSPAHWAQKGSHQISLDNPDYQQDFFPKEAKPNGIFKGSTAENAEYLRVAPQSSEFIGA

[4] = EGFR Wildtyp- 2 mM ATP IC50 [mol/l] (median)
[5] = read-out: EGFR Wildtyp- 2 mM ATP IC50 [mol/l] (median)

| Compound | IC50 (human CSNK1A1 [1]) [nM] | IC50 (human CSNK1A1 [2]) [nM] | IC50 (human CSNK1D) [nM] | IC50 [3, 4] [nM] | IC50 [3, 5] [nM] |
| --- | --- | --- | --- | --- | --- |
| CN1C(=O)c2c([nH]c(-c3ccnc(NC(=O)C(CC(F)F)c4ccc(F)cc4)c3)c2Nc2ccccc2F)CC1(C)C (racemic) [Example 45, 4,4-difluoro-N-{4-[3-(2-fluoroanilino)-5,6,6-trimethyl-4-oxo-4,5,6,7-tetrahydro-1H-pyrrolo[3,2-c]pyridin-2-yl]pyridin-2-yl}-2-(4-fluorophenyl)butanamide] | 16.3 | 273 | 13.2 | > 20000 |  |
| CN1C(=O)c2c([nH]c(-c3ccnc(NC(=O)C(CC(F)F)c4ccc(F)cc4)c3)c2Nc2ccccc2)CC12CCC2 (single isomer, unassigned; enantiomer 2) [Example 162, (+)-N-[4-(3′-anilino-5′-methyl-4′-oxo-1′,4′,5′,7′-tetrahydrospiro[cyclobutane-1,6′-pyrrolo[3,2-c]pyridin]-2′-yl)pyridin-2-yl]-4,4-difluoro-2-(4-fluorophenyl)butanamide (Enantiomer 2)] | 60.2 | 61.4 | 52.9 |  | > 20000 |
| CC1Cc2[nH]c(-c3ccnc(NC(=O)C(CC(F)F)c4ccc(F)cc4)c3)c(Nc3ccccc3F)c2C(=O)N1C (single isomer, unassigned; (-)) [Example 106, (−)-(2RS)-4,4-difluoro-N-{4-[(6R*)-3-(2-fluoroanilino)-5,6-dimethyl-4-oxo-4,5,6,7-tetrahydro-1H-pyrrolo[3,2-c]pyridin-2-yl]pyridin-2-yl}-2-(4-fluorophenyl)butanamide] | 17.8 | 56.2 | 22.3 |  | > 20000 |
| CC1(C)Cc2[nH]c(-c3ccnc(NC(=O)C(CC(F)F)c4ccc(F)cc4)c3)c(Nc3cccc(F)c3)c2C(=O)N1 (single isomer, unassigned; enantiomer 2) [Example 121, 4,4-difluoro-N-{4-[3-(3-fluoroanilino)-6,6-dimethyl-4-oxo-4,5,6,7-tetrahydro-1H-pyrrolo[3,2-c]pyridin-2-yl]pyridin-2-yl}-2-(4-fluorophenyl)butanamide (Enantiomer 2)] | 70.1 | 10200 | 63.5 |  | > 20000 |
| Cc1ccccc1Nc1c(-c2ccnc(NC(=O)C(C)c3ccc(F)cc3)c2)[nH]c2c1C(=O)NC(C)(C)C2 (racemic) [Example 132, N-{4-[6,6-dimethyl-3-(2-methylanilino)-4-oxo-4,5,6,7-tetrahydro-1H-pyrrolo[3,2-c]pyridin-2-yl]pyridin-2-yl}-2-(4-fluorophenyl)propanamide (Racemate)] | 24.3 | 915 | 32.9 | > 20000 |  |
| CC(C(=O)Nc1cc(-c2[nH]c3c(c2Nc2ccccc2)C(=O)N(C)C(C)C3)ccn1)c1ccc(F)cc1 (single isomer, unassigned; (-)) [Example 94, (−)-(2RS)—N-{4-[(6R*)-3-anilino-5,6-dimethyl-4-oxo-4,5,6,7-tetrahydro-1H-pyrrolo[3,2-c]pyridin-2-yl]pyridin-2-yl}-2-(4-fluorophenyl)propanamide] | 4.33 | 154 | 7.02 | 4410 |  |
| CCN1CCc2[nH]c(-c3ccnc(NC(=O)C(C)c4ccc(F)cc4)c3)c(Nc3ccccc3)c2C1=O (single isomer, unassigned) [Example 26, N-[4-(3-anilino-5-ethyl-4-oxo-4,5,6,7-tetrahydro-1H-pyrrolo[3,2-c]pyridin-2-yl)pyridin-2-yl]-2-(4-fluorophenyl)propanamide] | 4.05 | 288 | 23.1 |  | > 20000 |
| CN(C)CCNC(=O)c1ccc(CC(=O)Nc2cc(-c3[nH]c4c(c3Nc3ccccc3)C(=O)N(C)CC4)ccn2)cc1 [Example 155, 4-(2-{[4-(3-anilino-5-methyl-4-oxo-4,5,6,7-tetrahydro-1H-pyrrolo[3,2-c]pyridin-2-yl)pyridin-2-yl]amino}-2-oxoethyl)-N-[2-(dimethylamino)ethyl]benzamide] | 3.12 | 48.5 | 7.01 |  | 476 |
| CC(C(=O)Nc1cc(-c2[nH]c3c(c2Nc2ccccc2)C(=O)NCC3)ccn1)c1ccc(F)cc1 (single isomer, unassigned) [Example 11, N-[4-(3-anilino-4-oxo-4,5,6,7-tetrahydro-1H-pyrrolo[3,2-c]pyridin-2-yl)pyridin-2-yl]-2-(4-fluorophenyl)propanamide] | 30.4 | 3970 | 30.8 | 2290 |  |
| Cc1ccccc1Nc1c(-c2ccnc(NC(=O)C(CC(F)F)c3ccc(F)cc3)c2)[nH]c2c1C(=O)NC1(CCC1)C2 (single isomer, unassigned; enantiomer 2) [Example 145, (+)-4,4-difluoro-2-(4-fluorophenyl)-N-{4-[3′-(2-methylanilino)-4′-oxo-1′,4′,5′,7′-tetrahydrospiro[cyclobutane-1,6′-pyrrolo[3,2-c]pyridin]-2′-yl]pyridin-2-yl}butanamide-(Enantiomer 2)] | 10.7 | 14.8 | 8.21 |  | > 20000 |
| CC(C(=O)Nc1cc(-c2[nH]c3c(c2Nc2ccccc2)C(=O)N(C)C2(CCC2)C3)ccn1)c1ccc(F)cc1 (racemic) [Example 157, N-[4-(3′-anilino-5′-methyl-4′-oxo-1′,4′,5′,7′-tetrahydrospiro[cyclobutane-1,6′-pyrrolo[3,2-c]pyridin]-2′-yl)pyridin-2-yl]-2-(4-fluorophenyl)propanamide (Racemate)] | 8.76 | 50.8 | 15.8 | > 20000 |  |
| CN1CCc2[nH]c(-c3ccnc(NC(=O)Cc4cccnc4)c3)c(Nc3ccccc3)c2C1=O [Example 67, N-[4-(3-anilino-5-methyl-4-oxo-4,5,6,7-tetrahydro-1H-pyrrolo[3,2-c]pyridin-2-yl)pyridin-2-yl]-2-(pyridin-3-yl)acetamide] | 2.41 | 44.6 | 3.79 |  | 997 |
| O=C(Cc1ccc(F)cc1)Nc1cc(-c2[nH]c3c(c2Nc2cccc(F)c2Cl)C(=O)NCC3)ccn1 [Example 87, N-{4-[3-(2-chloro-3-fluoroanilino)-4-oxo-4,5,6,7-tetrahydro-1H-pyrrolo[3,2-c]pyridin-2-yl]pyridin-2-yl}-2-(4-fluorophenyl)acetamide] | 2.57 | 64.7 | 6.02 |  | 158 |
| O=C1NC2(CCC2)Cc2[nH]c(-c3ccnc(NC(=O)C(CC(F)F)c4ccc(F)cc4)c3)c(Nc3cccc(F)c3Cl)c21 (single isomer, unassigned; enantiomer 2) [Example 125, (+)-N-{4-[3′-(2-chloro-3-fluoroanilino)-4′-oxo-1′,4′,5′,7′-tetrahydrospiro[cyclobutane-1,6′-pyrrolo[3,2-c]pyridin]-2′-yl]pyridin-2-yl}-4,4-difluoro-2-(4-fluorophenyl)butanamide (Enantiomer 2)] | 10.5 | 12.1 | 9.39 |  | > 20000 |
| CC1(C)Cc2[nH]c(-c3ccnc(NC(=O)C(CC(F)F)c4ccc(F)cc4)c3)c(Nc3cccc(F)n3)c2C(=O)N1 (single isomer, unassigned; enantiomer 2) [Example 130, 4,4-difluoro-2-(4-fluorophenyl)-N-(4-{3-[(6-fluoropyridin-2-yl)amino]-6,6-dimethyl-4-oxo-4,5,6,7-tetrahydro-1H-pyrrolo[3,2-c]pyridin-2-yl}pyridin-2-yl)butanamide (Enantiomer 2)] | 26.7 | 1340 | 71.6 |  | > 20000 |
| Cc1ccccc1Nc1c(-c2ccnc(NC(=O)C(C)c3ccc(F)cc3)c2)[nH]c2c1C(=O)NC(C)(C)C2 (single isomer, unassigned; enantiomer 2) [Example 134, N-{4-[6,6-dimethyl-3-(2-methylanilino)-4-oxo-4,5,6,7-tetrahydro-1H-pyrrolo[3,2-c]pyridin-2-yl]pyridin-2-yl}-2-(4-fluorophenyl)propanamide (Enantiomer 2)] | 19.1 | 304 | 45.9 | > 20000 |  |
| CC(C(=O)Nc1cc(-c2[nH]c3c(c2Nc2ccccc2)C(=O)N(C)CC3)ccn1)c1ccc(Cl)cc1 (racemic) [Example 79, N-[4-(3-anilino-5-methyl-4-oxo-4,5,6,7-tetrahydro-1H-pyrrolo[3,2-c]pyridin-2-yl)pyridin-2-yl]-2-(4-chlorophenyl)propanamide] | 8.93 | 337 | 19.5 | > 20000 |  |
| CC(C(=O)Nc1cc(-c2[nH]c3c(c2Nc2ccccc2)C(=O)NC(C)(C)C3)ccn1)c1ccc(F)cc1 (stereo not shown) [Example 27, N-[4-(3-anilino-6,6-dimethyl-4-oxo-4,5,6,7-tetrahydro-1H-pyrrolo[3,2-c]pyridin-2-yl)pyridin-2-yl]-2-(4-fluorophenyl)propanamide] | 7.7 | 157 | 36.2 | > 20000 | 18000 |
